Reference: article PMC12920416, “Preclinical development of [^18F]TAAR1-2203 as a PET radioligand for imaging TAAR1 expression and receptor occupancy” (European Journal of Nuclear Medicine and Molecular Imaging, 2025)

Tests used:
[1] = Ex vivo radiometabolite analysis; type: in vivo, CD1 mice; settings: 30 min post-injection, n = 3
Method: Female CD1 mice (20 weeks old, n = 3) were injected with [^18F]TAAR1-2203 (100 µCi, 3.7 MBq) and sacrificed 30 min post-injection. Brain, pancreas, and plasma samples were collected. Organs were homogenized in ice-cold acetonitrile (CH3CN). Plasma was obtained by centrifugation at 1400 rpm for 5 min at 4 °C, and proteins were precipitated with repeated CH3CN extraction until clear supernatants were obtained. Analytical samples were spiked with non-radioactive TAAR1-2203 and analyzed by radio-HPLC (XBridge C18 column; CH3CN/H₂O 35:65, with 0.1% TEA; flow rate 1.0 mL/min). Parent tracer fractions were determined as the percentage of intact [^18F]TAAR1-2203 relative to total detected radioactivity.

TAAR1 [2] = molecular target: T1, TAAR1 (Mus musculus, UniProt Q923Y8); experiment: Dynamic PET imaging, TAAR1 knockout vs wild-type mice; type: in vivo
T1 construct: peripheral organs that express endogenous TAAR1; tissue Charles River (wild-type); F. Hoffmann-La Roche Ltd. (TAAR1 knock-out and matched controls); host or cells: mouse pancreas, kidney, liver, brain
Method: Dynamic PET imaging was performed for 60 min in female C57BL/6 mice, as well as in TAAR1 knock-out mice and respective controls, under 1–2% (v/v) isoflurane anaesthesia as previously reported. [^18F]TAAR1-2203 (1.5 MBq in 100 µL saline) was administered via tail vein injection. For blocking studies, TAAR1 agonist RO5425754 (4 mg/kg) was injected 5 min prior to radiotracer administration. Dynamic PET scans were acquired using a G8 PET/CT scanner (Sofie Biosciences, Culver, CA, USA) and analyzed with PMOD software (PMOD Technologies Ltd., Zurich, Switzerland). Radioactivity was decay-corrected and expressed as standardized uptake values (SUVs), normalized to body weight and injected dose.

[3] = Stability in formulation, saline and phosphate buffer; type: physicochemical; settings: up to 4 h at ambient temperature
Method: […] Analytical HPLC was performed using an XBridge C18 column (3.5 μm, 4.6 mm × 150 mm) under isocratic conditions with a mobile phase of MeCN/H2O (35:65, v/v) containing 0.1% triethylamine (TEA) at a flow rate of 1.0 mL/min.

[4] = Microsomal stability, NHP liver microsomes; type: in vitro ADME, non-human primate; settings: after 60 min, 37 °C
Method: (§1) Microsomal stability of [^18F]TAAR1-2203 was evaluated using mouse, rat, NHP, and human liver microsomes. Potassium phosphate buffer (340 µL, 0.5 M, pH 7.4) was combined with NADPH regenerating solution (40 µL, 10 mM). Radiotracer solution (10 µL, 150 µCi, 5.5 MBq) was added, and the mixture was preincubated at 37 °C for 5 min. Liver microsomes (20 µL) were subsequently added. Incubations were carried out at 37 °C with gentle shaking. At 30 and 60 min, 200 µL aliquots were quenched with ice-cold MeCN (200 µL), centrifuged at 10,000 g for 5 min, and analyzed using an AR-2000 radio-TLC imaging scanner (Eckert & Ziegler).

TAAR1 [5] = molecular target: T1, TAAR1; experiment: Ex vivo whole-body biodistribution, baseline and blockade; type: in vivo, CD1 mice
Method: Female CD1 mice (16 weeks old, n = 4) received [^18F]TAAR1-2203 (15 µCi, 0.56 MBq in 100 µL saline) via tail vein injection. For blocking studies, TAAR1 agonist RO5425754 (4 mg/kg) dissolved in saline containing 10% DMSO and 5% Tween® 80 was administered shortly before tracer injection through the same i.v. catheter. Mice were sacrificed at 5, 15, 30, and 60 min post-injection (n = 4 per group), and organs were harvested, weighed, and measured for radioactivity using a Packard Cobra 5002/5003 gamma counter. Data were decay-corrected and expressed as percentage of injected dose per gram of wet tissue (%ID/g).

[6] = Microsomal stability, human liver microsomes; type: in vitro ADME; settings: after 60 min, 37 °C
Method: as §1

[7] = Microsomal stability, rat liver microsomes; type: in vitro ADME; settings: after 60 min, 37 °C, printed as rodent microsomes
Method: as §1

[8] = Distribution coefficient (LogD), shake-flask method; type: physicochemical; settings: n-octanol/PBS pH 7.4, n = 3, read-out: LogD7.4
Method: The distribution coefficient (LogD) was determined using the shake-flask method. Briefly, 500 µCi (18.5 MBq) of [^18F]TAAR1-2203 was added to a presaturated mixture of PBS (1.3 mL, pH 7.4) and n-octanol (3 mL). The mixture was vortexed for 5 min, after which 500 µL aliquots (n = 3) were transferred into separate tubes and centrifuged at 3500–4000 rpm for 5 min. Following centrifugation, 50 µL of the n-octanol phase and 500 µL of the aqueous phase were carefully sampled and transferred into pre-weighed gamma counter tubes. After weighing, radioactivity in each phase was quantified using a Packard Cobra 5002/5003 gamma counter. The LogD value at pH 7.4 was calculated based on the measured weights and the radioactivity distribution between the organic and aqueous phases, as previously reported.

[9] = baseline, i.v., initial uptake post-injection
[10] = blockade with RO5425754 4 mg/kg, 15 min post-injection, n = 4

T1 sequence (Q923Y8 whole entry): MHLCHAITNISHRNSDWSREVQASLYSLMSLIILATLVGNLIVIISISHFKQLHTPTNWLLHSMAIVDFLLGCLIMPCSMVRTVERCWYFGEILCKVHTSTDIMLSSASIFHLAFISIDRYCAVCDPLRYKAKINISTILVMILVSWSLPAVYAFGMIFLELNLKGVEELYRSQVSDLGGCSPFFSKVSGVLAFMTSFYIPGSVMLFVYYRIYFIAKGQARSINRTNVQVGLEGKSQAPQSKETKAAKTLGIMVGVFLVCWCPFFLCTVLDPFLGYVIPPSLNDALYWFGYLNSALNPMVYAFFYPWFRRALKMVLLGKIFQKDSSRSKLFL

Cc1c([18F])cccc1[C@H]1COC(N)=N1 [[^18F]TAAR1-2203]
Parent tracer fraction in brain [1]: exceeded 80%
Parent tracer fraction in pancreas [1]: exceeded 80%
Parent tracer fraction in plasma [1]: exceeded 80%
Kidney AUC0−60 min in TAAR1 KO vs WT mice (TAAR1 [2]): significant reduction
Stability in formulation [3]: no detectable degradation
Intact tracer in NHP liver microsomes [4]: > 99%
Initial uptake in kidney (TAAR1 [5]; [9]): exceeding 10 % ID/g
Initial uptake in lung (TAAR1 [5]; [9]): exceeding 10 % ID/g
Initial uptake in pancreas (TAAR1 [5]; [9]): exceeding 10 % ID/g
Specific binding in the brain (TAAR1 [5]; blockade with RO5425754 4 mg/kg, 15 min post-injection): no specific binding was detected
Specific binding in the kidney (TAAR1 [5]; [10]): 52.5 ± 14.3%
Specific binding in the liver (TAAR1 [5]; [10]): 30.2 ± 12.2%
Specific binding in the pancreas (TAAR1 [5]; [10]): 52.2 ± 15.2%
Intact tracer in human liver microsomes [6]: > 99%
Intact tracer in rat liver microsomes [7]: > 98%
logD [8]: 1.64 ± 0.01
